Consider 4 substances from patent publication US5280014A, “Treatment of obesity and essential hypertension and related disorders” (Amylin Pharmaceuticals, Inc., priority 1991, dated 1994).

Series [1] concerns isolated soleus muscle from rats. Kind of series: amylin antagonist assay: incorporation of radiolabelled glucose into glycogen in isolated soleus muscle. The class given is cell-based, rat. On the procedure: Insulin was obtained as Humulin-R, 100 U/mL, recombinant human insulin (Eli Lilly, Indianapolis, Ind.). […] An antagonist assay was performed in vitro using the isolated soleus muscle from rats.
The right and left soleus muscles of 4-hour fasted rats were removed immediately after decapitation of the animals, divided in half and temporarily placed in physiological saline. Muscles were assigned to different treatment groups so that the 4 muscle pieces from each animal were evenly distributed among the 9 flasks representing the different assay conditions. […] Pharmacologically active agents were added to the 10mL of medium to result in the above stated concentrations and mixtures. […]
Dissolved glycogen was precipitated out by addition of 3 mL absolute ethanol and cooling to -20° C. overnight. […] The remaining glycogen was redissolved in water and scintillation fluid and counted for ^14 C.
From a knowledge of the specific activity of ^14 C-glucose in the 5.5 mM glucose of the incubation medium, and the total ^14 C counts remaining in the glycogen extracted from each muscle, it was possible to determine the net rate of glycogen synthesis over the final 60 minute incubation period. This was normalized per mass of muscle and expressed as μmoles of glucosyl units incorporated into glycogen per hour per gram of muscle. […]

Another series concerns normal rats. In words: intravenous amylin bolus in normal rats (hyperglycemia, respiratory quotient). The class given is in vivo, rat. From the text: The hyperglycemia is partly accounted for by an increase in hepatic (endogenous) glucose output and partly by an increased impediment in peripheral glucose disposal.
The test system of series [2] is isolated incubated skeletal muscles of the rat. Kind of series: effect of amylin on glucose uptake and glycogen synthesis in isolated incubated skeletal muscle. The class given is cell-based.
The subject of series [3] is isolated adipocytes. The conditions noted are these: Cooper et al. 1988; cited from earlier work.
The test system of series [4] is isolated adipocytes. In words: formation of CO2 or triacylglycerol from glucose in isolated adipocytes. The class given is cell-based.
The test system of series [5] is isolated adipocytes. In words: 2-deoxyglucose uptake in isolated adipocytes. The class given is cell-based. On the procedure:
(§1) In vitro studies in isolated adipocytes and cultured BC3H-1 myocytes were also conducted. […] Since 80-90% of in vivo insulin-stimulated glucose disposal represents skeletal muscle glucose uptake, an in vitro muscle cell system was also examined.

The next series concerns BC3H-1 myocytes. Kind of series: insulin-stimulated glucose uptake in cultured BC3H-1 myocytes. The class given is cell-based. The note with it: 10^-8 M CGRP, all insulin concentrations, FIG. 4. On the procedure: as §1
The subject of the next series is anaesthetised rats. Kind of series: hyperinsulinemic euglycemic glucose clamp in rats infused with insulin and CGRP. The note with it: for steady-state glucose infusion rate necessary to maintain euglycemia: FIG. 2A: insulin 1.8 mU/kg/min for 210 min, CGRP 0.02 ug/kg/min added from 80-150 min; for hepatic glucose output (HGO) / suppression of hepatic glucose output (HGO): FIG. 2B clamp, insulin alone or insulin in the presence of CGRP; for suppression of hepatic glucose output (HGO): from basal 11.2±0.7 mg/kg/min; for mean steady-state glucose infusion rate: FIG. 2B: CGRP 0.02 ug/kg/min plus insulin 1.8 mU/kg/min for 75 min, then insulin alone for 130 min; for mean steady-state plasma insulin level: insulin 1.8 mU/kg/min. From the text: In these experiments, the overall glucose disposal rate (GDR) equals the glucose rate plus hepatic glucose output (HGO).
In addition to stimulation of peripheral glucose disposal, another important in vivo glucoregulatory effect of insulin is to inhibit HGO.

For series [6], the system named is spontaneously hypertensive (SHR) rats. The conditions noted are these: continuous intravenous infusion of purified rat relaxin; single reported study; cited from earlier work.
Setting [7] is: FIG. 2B protocol, last 20 min of each period.

Turning to amylin, in series [1] (20 nM amylin, 1000 μU/mL insulin), the “decrease of insulin-stimulated rate of glycogen synthesis” value is given as “approximately 83%”. Further, in the series on normal rats (100 μg intravenous bolus), the persistence of hyperglycemia entry is “persists for several hours” and the “time to hyperglycemia at diabetic levels” value was 15 to 30 min. Moreover, the “blood glucose level reached (hyperglycemia)” value in the series with normal rats (100 μg intravenous bolus, eight normal rats) is listed as “around 200 mg/dL”. In addition, the “change in respiratory quotient (RQ)” value with normal rats (during somatostatin infusion (no endogenous insulin release), fasted animal) was “no change in RQ”. In addition, in the series with normal rats (somatostatin absent, insulin allowed to increase), the “change in respiratory quotient (RQ)” value is “increase in respiratory quotient”. For the same substance, the “reduction in the basal rate of glycogen synthesis” value in [2] (basal insulin concentration 1 uU/ml) amounted to 30%. Moreover, in series [2] (insulin concentration giving half-maximal stimulation in non amylin-treated muscles), the “response of amylin-treated muscles to insulin” value is on record as “no response to insulin”. The “insulin concentration needed to overcome the effect of amylin in muscle” value in series [2] (supra-physiological level) was determined as 1000 uU/ml. Further, the “effect on basal or insulin-stimulated incorporation of glucose into CO2 or triglyceride” value in the series on isolated adipocytes [3] is recorded as “does not influence”. For the same substance, in the series on isolated adipocytes [4], the “effect on basal or insulin-stimulated rates of formation of CO2 or triacyglycerol” value is recorded as “no effect”.
Take calcitonin gene-related peptide [CGRP]: the “effect on basal or insulin-stimulated 2-deoxyglucose uptake” value in the series with isolated adipocytes [5] was “no effect”. Besides, the “effect on insulin-stimulated glucose uptake” value in the series with BC3H-1 myocytes is listed as “significantly inhibited”. For the same substance, the “inhibition of insulin-stimulated GDR” value with anaesthetised rats (CGRP infusion rate 0.005 ug/kg/min) is given as “no inhibition”. For the same substance, the “inhibition of insulin-stimulated GDR” value in the series with anaesthetised rats (CGRP infusion rate 0.01 ug/kg/min) is on record as “intermediate effect”. In the series on anaesthetised rats, the “steady-state glucose infusion rate necessary to maintain euglycemia” value was determined as 18.0 ± 0.1 mg/kg/min, the “hepatic glucose output (HGO)” value stood at 8.0 mg/kg/min, the “suppression of hepatic glucose output (HGO)” value is listed as 29% and the “mean steady-state glucose infusion rate” value was 9.9 ± 0.3 mg/kg/min. In the series with anaesthetised rats (setting [7]), the “rise of GDR above basal” value stood at 7.4 ± 1.6 mg/kg/min.
Regarding insulin, the “increase in rate of glycogen synthesis” value in series [1] (1000 μU/mL insulin added to media) turned out to be 3.7 fold. Besides, in the series with anaesthetised rats, the “steady-state glucose infusion rate necessary to maintain euglycemia” value was found to be 26.7 ± 0.1 mg/kg/min, the “hepatic glucose output (HGO)” value worked out at 3.9 ± 2.7 mg/kg/min, the “suppression of hepatic glucose output (HGO)” value was found to be 69% and the “mean steady-state glucose infusion rate” value stood at 32.3 ± 0.3 mg/kg/min. For the same substance, the “glucose disposal rate (GDR)” value in the series on anaesthetised rats (FIG. 2B protocol, 3H-glucose, last 20 min of each period, basal GDR 11.2±0.7) stood at 35.6 ± 1.3 mg/kg/min. In addition, the “rise of GDR above basal” value in the series with anaesthetised rats (setting [7]) was determined as 24 ± 0.9 mg/kg/min. Also, the “mean steady-state plasma insulin level” value in the series with anaesthetised rats (absence of the CGRP infusion) is listed as 695±105 uU/ml. In addition, the “mean steady-state plasma insulin level” value in the series with anaesthetised rats (presence of the CGRP infusion) was 591±86 uU/ml.
Take relaxin: the “effect on systolic blood pressure” value in series [6] was “highly effective in reducing systolic blood pressure”.
